Experimental data published in patent US11566030B2, “Substituted 2,6-dihydropyrrolo[3,4-c]pyrazoles as pyruvate kinase activators” (priority 2021, dated 2023).
Where two headings read alike, the source gives them in different places.

Tests used:
[1] = test system: mouse model of beta-thalassemia; details: cited from earlier work
[2] = molecular target: T1, Human pyruvate kinase R (PKR) (Homo sapiens, UniProt P30613); assay: Biochemical assay for activation of pyruvate kinase R (Kinase-Glo luminescence, ATP generation); details: for Emax: read-out: PKR % activation, maximal activation level achieved with each compound relative to the activation level achieved by AG-348 @ 10 μM
T1 construct: Human pyruvate kinase R (PKR), residues 14-574; 6xHis-8xArg-SUMO (N, cleaved yes); host or cells: E. coli
How it was run: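 Recombinant human PKR (residues 14-574) expressed in E. coli with His-Arg-SUMO tag, tag cleaved, purified by Ni-NTA, anion exchange and size exclusion. Activation read as ATP generation by Kinase-Glo luminescence.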

T1 sequence (P30613 14-574): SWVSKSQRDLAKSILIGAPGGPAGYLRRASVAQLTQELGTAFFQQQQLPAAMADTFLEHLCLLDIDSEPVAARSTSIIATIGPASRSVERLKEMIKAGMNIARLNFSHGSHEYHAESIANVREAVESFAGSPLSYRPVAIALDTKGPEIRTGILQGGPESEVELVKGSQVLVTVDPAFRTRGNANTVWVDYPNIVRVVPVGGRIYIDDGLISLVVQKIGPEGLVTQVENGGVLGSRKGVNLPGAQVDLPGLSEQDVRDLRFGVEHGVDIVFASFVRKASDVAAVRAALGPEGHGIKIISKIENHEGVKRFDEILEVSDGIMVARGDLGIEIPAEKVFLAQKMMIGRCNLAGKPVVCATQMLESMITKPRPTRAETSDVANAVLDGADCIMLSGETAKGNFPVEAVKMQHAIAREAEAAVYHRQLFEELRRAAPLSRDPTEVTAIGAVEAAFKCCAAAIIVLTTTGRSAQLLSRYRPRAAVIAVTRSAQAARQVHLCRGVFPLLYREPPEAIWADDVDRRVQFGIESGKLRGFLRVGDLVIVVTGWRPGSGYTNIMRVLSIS

Row | Compound | AC50 [2] | Emax [2] | AC50 ([2]; PKR AC50 (nM), 0.1 nM PKR, 0.3 mM ADP, 0.1 mM PEP, 1% DMSO) | ATP levels [1] | PK activity [1] | RBC parameters [1]
1 | O=C(c1ccc(NS(=O)(=O)c2cccc3cccnc23)cc1)N1CCN(CC2CC2)CC1 [AG-348, Mitapivat] |  |  |  | increased | increased | improved
2 | CCOc1ncc(S(=O)(=O)n2cc3c(n2)CN(C(=O)[C@H](CO)c2ccccc2)C3)s1 [Compound 119, (2S)-1-{2-[(2-ethoxy-1,3-thiazol-5-yl)sulfonyl]-2H,4H,5H,6H-pyrrolo[3,4-c]pyrazol-5-yl}-3-hydroxy-2-phenylpropan-1-one] | 54 nM | 58% |  |  |  | 
3 | COc1ccccc1[C@H](CO)C(=O)N1Cc2cn(S(=O)(=O)c3cnn(CC(F)F)c3)nc2C1 [Compound 121, (2R)-1-{2-[1-(2,2-difluoroethyl)pyrazol-4-ylsulfonyl]-4H,6H-pyrrolo[3,4-c]pyrazol-5-yl}-3-hydroxy-2-(2-methoxyphenyl)propan-1-one] | 98 nM | 166% |  |  |  | 

Continued, in another order:

Row | AC50 [2] | Emax [2] | AC50 ([2]; PKR AC50 (nM), 0.1 nM PKR, 0.3 mM ADP, 0.1 mM PEP, 1% DMSO) | Compound | ATP levels [1] | PK activity [1] | RBC parameters [1]
4 | 16 nM | 102% |  | COc1ccccc1[C@@H](CO)C(=O)N1Cc2cn(S(=O)(=O)c3cnn(CC(F)F)c3)nc2C1 [Compound 120, (2S)-1-{2-[1-(2,2-difluoroethyl)pyrazol-4-ylsulfonyl]-4H,6H-pyrrolo[3,4-c]pyrazol-5-yl}-3-hydroxy-2-(2-methoxyphenyl)propan-1-one] |  |  | 
5 |  | 120% | 240 nM | O=C([C@@H](CO)c1ccccc1)N1Cc2cn(S(=O)(=O)c3cnn(CC(F)F)c3)nc2C1 [Compound 122, (2R)-1-(2-{[1-(2,2-difluoroethyl)-1H-pyrazol-4-yl]sulfonyl}-2H,4H,5H,6H-pyrrolo[3,4-c]pyrazol-5-yl)-3-hydroxy-2-phenylpropan-1-one] |  |  | 
